# Experimental data as given in patent publication US7989176B2, “Treating cancer” (Theryte Ltd., priority 2002, dated 2011).
# Columns and labels:
# [1] = test system: advanced gastric cancer; conditions: completed phase II study, patients with advanced gastric cancer (Kaubisch et al. 2000); cited from earlier work
# [2] = test system: HCT116 cells; assay: Growth curves of transfected cultures; type: cell-based; conditions: oligonucleotide 1 μM
# Method: (§1) Sense and antisense phosphorothionate oligonucleotide with the sequence set out in SEQ1 and SEQ2 respectively were synthesised in a 380B DNA synthesiser. Each oligonucleotide was premixed with lipofectin reagent and diluted in DMEM (Gibco). 6 cm plates of HCT116 cells at 40-50% confluence were rinsed once with 4 ml serum free DMEM and transfected with the oligonucleotides at a final concentration of 1 μM and the lipofectin reagent at a final concentration of 19 μg/ml according to the manufacturer's instructions (Life Technologies Inc., Gaithersburg, Md.). After 4 hours, Foetal Calf Serum (Gibco) was added to a final concentration of 10%. A lipofectin only transfection was performed as a control. Cell extracts were harvested after 48 h and examined by Western blot analysis with a pRb antibody. Equal loading of protein samples was confirmed by Coomassie blue staining or by immunoreactivity with an anti-actin antibody (Sigma). The intensities of the Rb bands were quantised with an image scanner (Molecular Dynamics). […] The treatment with the sense oligonucleotide led to about a 5% reduction in the level of pRb. […] Apoptosis in the cultures 48 h after transfection was tested for using the TUNEL assay. An in situ apoptosis detection kit ApopTag (Oncor, Gaithersburg, Md.) was used as recommended by the manufacturer. […]
# [3] = test system: pRb; assay: Western blot analysis of pRb expression after oligonucleotide transfection; type: cell-based; conditions: HCT116 cells, oligonucleotide 1 μM with lipofectin 19 μg/ml, extracts harvested after 48 h
# Method: as §1
# [4] = test system: HCT116 cells; assay: TUNEL assay for apoptosis (ApopTag kit); type: cell-based; conditions: 48 h after transfection
# Method: as §1
Compound,clinical responses [1],effect on growth compared with the lipofectin-treated control culture [2],level of pRb expression relative to the control culture treated only with lipofectin [3],increase in apoptosis ([4]; versus lipofectin treated culture) [fold],percentage of TUNEL positive cells ([4]; oligonucleotide 1 μM)
CN1CC[C@H](c2c(O)cc(O)c3c(=O)cc(-c4ccccc4Cl)oc23)[C@H](O)C1 [flavopiridol],no clinical responses were observed,–,–,–,–
"antisense oligonucleotide: antisense phosphorothionate oligonucleotide to Rb, sequence SEQ2: 5′ -GGTTTTGGGCGGCATGAC-3′ (DNA, all phosphorothioate, methylation of C not given here)",–,growth inhibition,about 30%,> 10,18+/−0.5%
